Test results as given in patent publication US11707511B2, “Vaccine compositions and methods of using the same” (The Board of Supervisors of Louisiana State University and …, priority 2017, dated 2023).
“Also recorded” adds a separate entry of the source.

Assays:
[1] = system: C. glabrata CBS138 (ATCC 2001); assay: Peptide-vaccinated, cyclophosphamide-immunosuppressed mice challenged with C. glabrata; assay type: in vivo; settings: FIG. 4; 1×10^7 cells/mouse
Procedure: (§1) Active Immunizations with peptide pulsed dendritic cells. […] It allows us to perform rapid throughput evaluation of candidate short peptides. When protective double universal peptide conjugate(s) become identified by this study, immunization approaches suitable for human use will be applied in further studies. All active vaccinations were conducted as previously described (6,7,9). DCs were pulsed in vitro with universal peptide as described before with minor modification by totally removing CFA for last booster (6). Briefly, DCs in culture were pulsed with the peptide antigen (1 μM) on day 6. On day 7, PGE2 (10^-7M) was added along with LPS (2 μg/ml, Sigma) for 24 h to induce DC maturation. On day 9, antigen-pulsed DCs were washed extensively and […] in 200 μl DPBS were given by intraperitoneal (i.p.) route as the priming dose to mice. The mice were boosted i.p. at day 14 and day 28 with fresh antigen-pulsed DCs without adjuvant.
Peptide vaccinated mice were also challenged with C. glabrata, which has emerged as the second most common cause of invasive candidiasis in the US. Since C. glabrata is not lethal for wild-type mice, immunosuppression in vaccinated mice were induced by cyclophosphamide (50 mg/kg) treatment for two weeks, and then mice were challenged with live C. glabrata cells [CBS138 (ATCC 2001), 1×10^7 cells/mouse]. […] CFU experiments will be performed and completed. […]

[2] = Induction of specific anti-peptide antibody responses in immunized mice; assay type: in vivo; settings: BALB/c mice; peptide-pulsed DC; data not shown
Source text: (§2) To perform rapid throughput evaluation of peptide vaccine candidates, immunizations were done by use of the similar antigen-pulsed DC based vaccine strategy with modification by totally removing CFA from vaccine formula. Fba peptide was used as positive control.
The double chimeric peptide conjugate vaccines have been tested for their abilities to induce specific anti-peptide antibodies and protective immunity against the disease caused by C. albicans. […] The enhancement in vaccine efficacy was evidenced by both increased survival and reduced or non-detectable fungal burden (colony forming units, CFUs) in kidneys of animals.

C. albicans = assay: Active immunization with peptide-pulsed dendritic cells, disseminated candidiasis caused by C. albicans in mice; assay type: in vivo, Candida albicans; settings: for protection against disseminated candidiasis caused by C. albicans: FIG. 2, antigen-pulsed DC vaccine without CFA; for CFUs in kidneys as compared to controls: FIG. 2 B and D
Procedure: as §1
Table 2 lists universal peptide vaccines that induced protection against disseminated candidiasis caused by C. albicans in mice. The universal peptide vaccines listed in Table 1 are expressed at high homology by all analyzed medically important Candida species in addition to C. albicans (see details at Table 2). By dendritic cell (DC) based immunization approach as described herein, each of the universal peptide vaccines was able to protect mice against disseminated candidiasis caused by C. albicans, with the survival rate 80-100% up to 80-120 days post challenge.
as §2

[3] = system: C. tropicalis (ATCC 20336); assay: Peptide-vaccinated mice challenged with lethal dose of C. tropicalis; assay type: in vivo; settings: for survival: FIG. 3A, i.v. challenge 1×10^6/mouse, up to 80 days; for live fungal cells (CFU) in kidneys as compared to controls: FIG. 3B, p<0.001
Procedure: as §1
Peptide-vaccinated mice were challenged with lethal dose of live C. tropicalis cells (ATCC 20336; i.v. challenge dose: 1×10^6/mouse).

C. albicans 3153A = assay: Amp B - antibody combination therapy of mice with disseminated candidiasis; assay type: in vivo, Candida albicans; settings: BALB/c mice, Amp B 0.5 mg/kg
Procedure: Mice were then given by i.v. of 5×10e5 of C. albicans 3153A yeast cells, 8 hour later the mice received i.p. 0.5 mg Amp B/kg body weight with each mAb (E2-9, M2-4, 2D5F7 and 2B10C1). Mice without any treatment and mice treated with antifungal drug alone were used as controls. Survival curves were scored and MST were measured.

HLA-DR types = settings: of the most common HLA-DR types tested to date; cited from earlier work
[4] = when incorporated into several peptide antigens; average; cited from earlier work

Molecule	protection against disseminated candidiasis caused by C. glabrata [1]	specific antibody responses [2]	protection against disseminated candidiasis caused by C. albicans (C. albicans)	CFUs in kidneys as compared to controls (C. albicans)	survival [3] [%]	live fungal cells (CFU) in kidneys as compared to controls [3]	also measured
FbaU1: putative universal Fba peptide; Table 17 equates it with Fba3 (SEQ ID NO: 36) but tested as a separate peptide (FAIPAINVTSSSTVVAALE)	high degree protection	able to induce specific antibody responses	good protective responses; also recorded: high degree protection	reduced or non-detectable CFUs	100	significantly reduced live fungal cells	–
C[C@@H]1[C@H](O)[C@@H](C)/C=C/C=C/C=C/C=C/C=C/C=C/C=C/[C@H](O[C@@H]2O[C@H](C)[C@@H](O)[C@H](N)[C@@H]2O)C[C@@H]2O[C@](O)(C[C@@H](O)C[C@@H](O)[C@H](O)CC[C@@H](O)C[C@@H](O)CC(=O)O[C@H]1C)C[C@H](O)[C@H]2C(=O)O [Amp B, amphotericin B]	–	–	–	–	–	–	therapeutic effect / survival time (C. albicans 3153A; treatment 8 hours post-infection, in words): the same susceptible to the disease as mice that received no Amp B; also recorded: no therapeutic effect; MST (mean survival times) (C. albicans 3153A; Table 16, 5×10e5 C. albicans 3153A i.v., treatment i.p. 8 hours post-infection): 14.5 ± 3.7 days
AKFVAAWTLKAAA [PADRE]	–	–	–	–	–	–	HLA-DR types bound with high or intermediate affinity (HLA-DR types): 15 of 16
RGD	–	–	–	–	–	–	enhancement of antibody titers [4]: 10 times
YDQVLDLSLLFNAIP [Met6-2]	high degree protection	able to induce specific antibody responses	good protective responses; also recorded: high degree protection	reduced or non-detectable CFUs	80	significantly reduced live fungal cells	–
